This is an account of results in US5334761A, “Cationic lipids” (Life Technologies, Inc., priority 1992, dated 1994).

The subject of data set [1] is NIH-3T3 cells. Put plainly: CAT transient transfection. Type of data set: cell-based, mouse. Conditions: for DNA transfection (in words): NIH-3T3; for CAT ACTIVITY: 2 μg pSV2CAT, 6 h OPTI MEM serum-free. Here is the method: (§1) A one-to-one mixture (by weight) of the desired lipid and dioleylphosphatidyl ethanolamine was prepared in CHCl3. The CHCl3 was removed on the rotary evaporator to obtain a thin film of lipid mixture. The mixture was hydrated with enough water to obtain approximately 1.25 mg of lipid per ml of solution. The solution was passed through a microfluidizer twice and diluted to 1 mg/ml. The liposome formulation was then filtered through a 0.2 μ filter. Compound 8 was also formulated without DOPE either by sonication at 1 mg/ml in water or by dissolving a dried lipid film with ethanol and then adding water to give a final concentration of 2.5 mg/ml. Ethanol was 10% of that volume. In some instances, this was further diluted with water to 1 mg/ml, 4% ethanol.
(§2) Baby hamster kidney (BHK-21) , COS-7, HeLa-S3 cells, and normal human fibroblasts isolated from newborn foreskin dermis were grown in Dulbecco's-modified Eagle's medium (DMEM) containing 10% fetal bovine serum (FBS), 2 mM L-glutamine (gln), 0.1 mM MEM nonessential amino acids (NEAA), 100 U/ml penicillin, and 100 μg/ml streptomycin. NIH-3T3 cells were grown in DMEM containing 10% calf serum (CS), 2 mMgln, 0.1 mM NEAA 100 U/ml penicillin, and 100 μg/ml streptomycin. PC12 cells were grown in DMEMcontaining 10% horse serum, 5% FBS, 2 mM gln, 0 1 mMNEAA, 100 U/ml penicillin and 100 μ/ml streptomycin. Jurkat cells (human lymphoid cell line) were grown in RPMI-1640 supplemented with 10% FBS, 2mML-glutamine, 100 U/ml penicillin, and 100 μg/ml streptomycin. Human keratinocytes were isolated from newborn foreskin epidermis and cultured in Keratinocyte Growth Medium (Clonetics, San Diego, Ca.). All cell lines were maintained in a humidified incubator with a 5% CO2 atmosphere at 37° C.
(§3) pSV2CAT (5.0 Kb) was described previously (Gorman, C. M. et al. (1982) Mol. Cell. Biol. 2:1044). pCMVCAT (5.0 Kb) was also described previously (Foecking M. K. and Hofstetter, H. (1986) Gene 45:101). Plasmid DNA was purified by isopycnic centrifugation in CsCl/EtBr gradients after recovery by alkaline lysis (Maniatis, T. et al. (1982) in Molecular Cloning: A Laboratory Manual, Cold Spring Harbor Laboratory, Cold Spring Harbor, N.Y., pp. 90-91).
(§4) For transient transfection of pSV2CAT DNA or pCMVCAT DNA, cells were plated in 6-well tissue culture dishes (35 mm wells) and incubated overnight to approximately 60% confluency. To transfect cells in one well, 1-2 μg of pSV2CAT DNA or pCMVCAT DNA was diluted in 100 μl Opti-MEM I. Cationic lipids were diluted separately in another 100 μl aliquot of Opti-MEM I. The two solutions were then mixed in a polystyrene tube, incubated for 10-15 min at room temperature to allow the formation of a DNA-liposome complex, and diluted to one ml by adding 0.8 ml Opti-MEM I or DMEM containing 5% fetal bovine serum (FBS), 2 mMgln, 0.1 mMNEAA, and lacking antibiotics. The cells were washed once with Opti-MEM I or serum-free DMEM, and the DNA-liposome complex was added directly to the cells. After a six hr incubation at 37° C., the transfection complexes were removed and two ml of DMEM containing 10% FBS, 2 mMgln, 0.2 mMNEAA, 100 U/ml penicillin, and 100 μg/ml streptomycin, was added to each well. Note: human keratinocytes were cultured and transfected in Keratinocyte Growth Medium. Cells were incubated for an additional 48 hrs and lysed in situ by freeze-thawing once or twice in 300 μl 0.1M Tris-HC1, pH 7.8-8.0 containing 0 1% Triton X-100. Cell lysates were assayed for CAT activity.
(§5) Cell lysates were assayed for CAT activity as described by Neumann et al. (1987) BioTechniques 5:444 using [^14 C]-butyryl coenzyme A (New England Nuclear, Boston, Mass.). The enzyme reactions were incubated for 2 hrs at 37° C., overlayed with 3.0 ml Econofluor (New England Nuclear) and then incubated for an additional 2 hrs to allow diffusion of the acetylated chloramphenicol into the scintillation fluid. CAT activity was determined by measuring radioactivity in a liquid scintillation counter. […]

Data set [2] can be described thus: % protein (toxicity estimate, Bradford) after transfection. Conditions: mouse, nih-3t3 cells; 16 μg lipid; 2 μg pSV2CAT; 6 h OPTI MEM serum-free. Type of data set: cell-based, mouse. Here is the method: as §1
(§6) Baby hamster kidney (BHK-21) , COS-7, HeLa-S3 cells, and normal human fibroblasts isolated from newborn foreskin dermis were grown in Dulbecco's-modified Eagle's medium (DMEM) containing 10% fetal bovine serum (FBS), 2 mM L-glutamine (gln), 0.1 mM MEM nonessential amino acids (NEAA), 100 U/ml penicillin, and 100 μg/ml streptomycin. […]
(§7) The "% protein" column indicates the relative amount of protein in the sample tested for CAT activity and therefore provides a way to estimate toxicity of the compounds being tested. […] Protein was measured using a commercially available Bradford protein assay (BioRad Laboratories, Richmond, Ca.). […]

For data set [3], the system named is Jurkat cells. Put plainly: CAT transient transfection. Conditions: pSV2CAT, 6 h OPTIMEM. Type of data set: cell-based, human. Here is the method:
as §1, §2, §3
(§8) For transient nuclear expression of pSV2CAT or pCMVCAT in Jurkat cells, cells were washed with Opti-MEM I or serum-free RPMI 1640 containing 2 mM gln and plated in six-well plates at a density of 3×10^6 cells per well in 0.8 ml Opti-MEM I or RPMI 1640. For each transfection, 5 μg pSV2CAT DNA or 2 μg pCMVCAT DNA was diluted in 100 μl Opti-MEM I. Lipids were diluted separately in another 100 μl aliquot of Opti-MEMI. The two solutions were then mixed in a polystyrene tube and incubated for 10-15 min at room temperature. The DNA-liposome complex was added to the cell suspensions and incubated 6 hours at 37° C., after which 4 ml growth medium were added per well (RPMI-1640; 10% FBS). Phorbol myristate acetate (Sigma Chemical Co., St. Louis, Mo.) and phytohemagglutinin (Sigma) were also added to a final concentration of 50 ng/ml and 1 μg/ml, respectively, to activate the cells. Cells were harvested at approximately 48 hours post-transfection by centrifugation. Cell lysates were prepared by resuspending cell pellets at 0° C. in 0.1 M Tris-HC1 pH 8.0 containing 0.1% Triton X-100 and freeze-thawing once. Cell lysates were cleared by centrifugation and assayed for CAT activity.
as §5

Data set [4] concerns HeLa-S3 cells. Put plainly: CAT transient transfection. Type of data set: cell-based. Conditions: for CAT ACTIVITY: 2 μg pSV2CAT, 6 h. The protocol: as §1, §2, §3, §4, §5
For data set [5], the system named is normal human keratinocytes. The experiment in a line: CAT transient transfection. Type of data set: cell-based. Conditions: for CAT ACTIVITY: 2 μg pSV2CAT, 6 h, 50 μl of 300 μl assayed; for DNA transfection (in words): keratinocytes. The protocol:
as §1, §2, §3, §4, §5

The nature of data set [6]: % protein (toxicity estimate, Bradford) after transfection. Type of data set: cell-based. Conditions: human, hela-s3 cells, 2 μg pSV2CAT. The protocol:
as §1, §6, §7

Test in data set [7]: as above
Format: cell-based, human. Conditions: human, keratinocytes, 2 μg pSV2CAT, 6 h. The protocol:
as §1
as §2, with “C. […]” for “C.”
as §7

Test in data set [8]: as above
Type of data set: cell-based, human. Conditions: human, jurkat cells, pSV2CAT, 6 h OPTIMEM. The protocol: as §1, §2, §8
The "% protein" column indicates the relative amount of protein in the sample tested for CAT activity and therefore provides a way to estimate toxicity of the compounds being tested. The "CAT Activity" column indicates the relative transfection effectiveness of the lipid formulation in the various cell lines. The control sample was a cell culture grown under similar conditions as those that were transfected, but with no DNA or cationic lipid added. Protein was measured using a commercially available Bradford protein assay (BioRad Laboratories, Richmond, Ca.).
Jurkat cells (3 × 10^6 cells) were transfected in OPTIMEM with
μg of pSV2CAT DNA for 6 hours.
DNA-lipid complexes were made in OPTIMEM. Jurkat cells (3 × 10^
cells) were transfected in RPMI1640 with 2 μg of pCMVCAT DNA for 6

In data set [9] the test system is some cell lines. Conditions: cited from earlier work.
For data set [10], the system named is some cell lines. Conditions: cited from earlier work; for transfection efficiency relative to DOTMA: some cell lines; for transfection / delivery of nucleic acids: lipid aggregates or liposomes.

As for `CCCCCCCC/C=C\CCCCCCCCOCC(C[N+](C)(C)CCN)OCCCCCCCC/C=C\CCCCCCCC` (stereo not drawn) [Compound 2, 1-Propanaminium, N-(2-amino)ethyl-N,N-dimethyl-2,3-bis(9-octadecenyloxy)-bromide], in data set [1], the “DNA transfection (in words)” value is on record as “good activity”.
Consider `CCCCCCCC/C=C\CCCCCCCCOCC(C[N+](C)(C)CCBr)OCCCCCCCC/C=C\CCCCCCCC` (stereo not drawn) [Compound 3, 1-Propanaminium, N-[2-(2-bromo)ethyl]-N,N-dimethyl-2,3-bis(9-octadecenyloxy)-,bromide], for which the viability at 6 h in [2] was 35%; in data set [6] (6 μg lipid, DMEM, 5% FBS), 54%; in data set [6] (12 μg lipid, OPTIMEM I, 0% FBS), 43%; in data set [7] (10 μg lipid) it was 42%; in data set [8] (30 μg lipid), 97%. The “CAT ACTIVITY” value in data set [3] (30 μg lipid) was 3008 CPM/150 μl; in data set [4] (6 μg lipid, DMEM, 5% FBS), 78,798 CPM; in data set [4] (12 μg lipid, OPTIMEM I, 0% FBS), 29,400 CPM; in data set [5] (10 μg lipid) it was 10,598 CPM; in [1] (16 μg lipid) it was 6,074 CPM. Moreover, the “DNA transfection (in words)” value in data set [4] (HeLa-S3, presence or absence of serum) was “good activity”; in [1], “good activity”.
With `CCCCCCCC/C=C\CCCCCCCCOCC(C[N+](C)(C)CCNCCCN)OCCCCCCCC/C=C\CCCCCCCC` (stereo not drawn) [Compound 4, 1-Propanaminium, N-[2-[(3-aminopropyl)amino]ethyl]-N,N-dimethyl-2,3-bis(9-octadecenyloxy)-, bromide], the “CAT ACTIVITY” value in data set [3] (20 μg lipid) is listed as 2252 CPM/150 μl; in data set [3] (30 μg lipid), 820 CPM/150 μl; in data set [5] (40 μg lipid), 20,038 CPM; in data set [1] (24 μg lipid), 3,114 CPM. Besides, the “DNA transfection (in words)” value in [5] is on record as “effective”. The viability at 6 h in data set [7] (40 μg lipid) was 41%; in data set [8] (20 μg lipid), 93%; in [8] (30 μg lipid), 100%.
For the compound `CCCCCCCC/C=C\CCCCCCCCOCC(C[N+](C)(C)CCNCCCNCCCCNCCCN)OCCCCCCCC/C=C\CCCCCCCC` (stereo not drawn) [Compound 5, 1-Propanaminium,N-{2-[[3-[[4-[(3-aminopropyl)amino]butyl]-amino]propyl]amino]ethyl}-n,n-dimethyl-2,3-bis-(9-octadecenyloxy)-, bromide], the “CAT ACTIVITY” value in data set [3] (20 μg lipid) is 1170 CPM/150 μl. Further, the “DNA transfection (in words)” value in data set [5] is “effective”. The viability at 6 h in data set [8] (20 μg lipid) was 100%.
For the compound `CC(C)CCC[C@@H](C)[C@H]1CC[C@H]2[C@@H]3CC=C4C[C@@H](OC(=O)NCCN(C)C)CC[C@]4(C)[C@H]3CC[C@]12C` [DC-Chol], the “toxicity relative to DOTMA” value in data set [9] was “lower toxicity”. Besides, the “transfection efficiency relative to DOTMA” value in [10] is “more efficient transfection”.
Turning to `CCCCCCCCCCCCCCCCCCN(CCCCCCCCCCCCCCCCCC)C(=O)CNC(=O)C(CCCNCCCN)NCCCN` (stereo not drawn) [DOGS, 5-carboxyspermylglycine dioctadecylamide], the “toxicity relative to DOTMA” value in data set [9] is “less toxic”. Moreover, in data set [10], the “transfection / delivery of nucleic acids” value is on record as “efficient transfection” and the “transfection efficiency relative to DOTMA” value is “more efficient”.
For `CCCCCCCC/C=C\CCCCCCCCOCC(C[N+](C)(C)C)OCCCCCCCC/C=C\CCCCCCCC` (stereo not drawn) [DOTMA], the “transfection / delivery of nucleic acids” value in data set [10] is “efficient delivery of nucleic acids to some types of cells”.
With `CCCCCCCCCCCCCCCC(=O)OCC(COP(=O)(O)OCCNC(=O)C(CCCNCCCN)NCCCN)OC(=O)CCCCCCCCCCCCCCC` (stereo not drawn) [DPPES, dipalmitoylphosphatidylethanolamine 5-carboxyspermylamide], the “toxicity relative to DOTMA” value in data set [9] is given as “less toxic”. In addition, in data set [10], the “transfection / delivery of nucleic acids” value is “efficient transfection” and the “transfection efficiency relative to DOTMA” value is recorded as “more efficient”.

Usually viability stands for a per cent measure of how many cells are alive, often set against a control.
